Results published in patent publication US12391687B2, “Five-and-six-membered heterocyclic compound and use thereof as protein receptor kinase inhibitor” (SHANGHAI ENNOVABIO PHARMACEUTICALS CO., LTD., priority 2018, dated 2025).

Tests used:
[1] = test system: KM12-LUC cells; assay: KM12-LUC cell proliferation experiment (CellTiter-Glo); type: cell-based; details: human colon cancer cell line with TPM3-NTRK1 fusion, 72 hours
Procedure: Human colon cancer cell line KM12-LUC (LUC, stably expressing Luciferase) expressing TPM3-NTRK1 fusion gene was used to evaluate cellular activity of the compounds. The TRK fusion gene in KM12-LUC cells makes the sustained activation of TRK and the downstream signaling pathways associated with cell proliferation such as MAPK-ERK, PI3K-AKT, etc independent of the stimulation of extracellular growth factor. […] The method was as follows: On the first day, the cells were seeded into 384-well plates at 2000 cells/well; on the second day, different concentrations of test compounds were added; and on the 5th day, CellTiter-Glo (Promega) was added to detect cell viability, and the cell proliferation inhibition rate at 72 hours was calculated. Statistical analysis was carried out by PRISM5 and the IC50 of the test compounds was calculated.

[2] = target: Recombinant human TRKA (Homo sapiens (Human), UniProt P04629); assay: In vitro activity test on TRKA kinase (HTRF kinEASE TK); type: biochemical; details: 14.68 μM ATP, 40 min, room temperature
Procedure: (§1) Recombinant human TRKA, TRKB, TRKC proteins were purchased from Carna Biosciences. HTRF kinEASE TK kit was purchased from Cisbio Bioassays. Synergy Neo 2 of Biotek was used to read the plate.
(§2) The tested compounds were subjected to 3-fold serial dilution to reach a final concentration of 1 μM to 0.05 nM (10 concentrations), duplicates for each concentration; and the DMSO concentration in the detection reaction was 1%.
0.2 ng/μL TRKA protein kinase, 1 μM TK Substrate-biotin polypeptide substrate, 14.68 μM ATP, 1×enzymatic buffer, 5 mM MgCl2, and 1 mM DTT. The assay plate was White Proxiplate384-Plus plate (PerkinElmer), and the reaction was incubated at room temperature for 40 min, and the assay volume was 10 μL.
(§3) 10 μL of detection reagent (containing 0.125 μM SA-XL665 and 5 μL 1×TK-Antibody) was added to the plate and incubated overnight at room temperature. Synergy Neo 2 was used to read the plate.
(§4) The 665/620 Ratio was converted according to the following formula into inhibition rate (%)=(1−Ratiotest/Ratiomax)×100%. Ratiomax was the value of positive controls without tested compound, and Ratiotest was the value of each concentration of different compounds. IC50 (nM) data was obtained by 4 parameter curve fitting (see Table 1).

[3] = target: Recombinant human TRKC (Homo sapiens (Human), UniProt Q16288); assay: In vitro activity test on TRKC kinase (HTRF kinEASE TK); type: biochemical; details: 25.64 μM ATP, 40 min, room temperature
Procedure: as §1, §2
(§5) 0.037 ng/μL TRKC protein kinase, 1 μM TK Substrate-biotin polypeptide substrate, 25.64 μM ATP, 1× enzymatic buffer, 5 mM MgCl2, and 1 mM DTT. The detection plate was White Proxiplate 384-Plus plate (PerkinElmer), the reaction was incubated at room temperature for 40 min, and the assay volume was 10 μL.
as §3, §4

[4] = target: recombinant human TRKA (G595R) (Homo sapiens (Human), UniProt P04629, G595R); assay: In vitro activity test on mutant TRKA (G595R) (HTRF kinEASE TK); type: biochemical; details: 4.5 μM ATP, 30 min, room temperature; read-out: TRKA (G595R) IC 50
Procedure: The recombinant human TRKA (G595R), TRKA (G667C) and TRKC (G623R) proteins were purchased from SignalChem. HTRF kinEASE TK kit was purchased from Cisbio Bioassays. Synergy Neo 2 of Biotek was used to read the plate.
The tested compounds were subjected to 4-fold serial dilution to reach a final concentration of 1 μM to 0.004 nM (10 concentrates), duplicates for each concentration; and the final concentration of DMSO in the reaction was 1%.
0.12 ng/μL TRKA (G595R) kinase, 1 μM TK Substrate-biotin polypeptide substrate, 4.5 μM ATP, 1× enzymatic buffer, 5 mM MgCl2, and 1 mM DTT. The assay plate was White Proxiplate384-Plus plate (PerkinElmer), and the reaction was incubated at room temperature for 30 min, and the assay volume was 10 μL.
10 μL of detection reagent (containing 0.125 μM SA-XL665 and 5 μL 1×TK-Antibody) was added to the plate and incubated overnight at room temperature, and Synergy Neo 2 was used to read the plate.
The value of 665/620 Ratio minus the value of negative control wells without enzyme, then the obtained value was converted according to the following formula into inhibition rate (%)=(1−Ratiotest/Ratiomax)×100%. Ratiomax was the value of positive controls without tested compound, and Ratiotest was the value of each concentration of different compounds. IC50 (nM) data was obtained by 4 parameter curve fitting (see Table 3).

[5] = target: Recombinant human TRKB (Homo sapiens (Human), UniProt Q16620); assay: In vitro activity test on TRKB kinase (HTRF kinEASE TK); type: biochemical; details: 4.77 μM ATP, 50 min, room temperature
Procedure: as §1, §2
as §5, with “TRKB” for “TRKC”, “4.77” for “25.64”, “MgCl2, 1 mM MnCl2” for “MgCl2,”, “assay” for “detection”, “50” for “40”
as §3, §4

Chain of Recombinant human TRKC (Q16288 32-839): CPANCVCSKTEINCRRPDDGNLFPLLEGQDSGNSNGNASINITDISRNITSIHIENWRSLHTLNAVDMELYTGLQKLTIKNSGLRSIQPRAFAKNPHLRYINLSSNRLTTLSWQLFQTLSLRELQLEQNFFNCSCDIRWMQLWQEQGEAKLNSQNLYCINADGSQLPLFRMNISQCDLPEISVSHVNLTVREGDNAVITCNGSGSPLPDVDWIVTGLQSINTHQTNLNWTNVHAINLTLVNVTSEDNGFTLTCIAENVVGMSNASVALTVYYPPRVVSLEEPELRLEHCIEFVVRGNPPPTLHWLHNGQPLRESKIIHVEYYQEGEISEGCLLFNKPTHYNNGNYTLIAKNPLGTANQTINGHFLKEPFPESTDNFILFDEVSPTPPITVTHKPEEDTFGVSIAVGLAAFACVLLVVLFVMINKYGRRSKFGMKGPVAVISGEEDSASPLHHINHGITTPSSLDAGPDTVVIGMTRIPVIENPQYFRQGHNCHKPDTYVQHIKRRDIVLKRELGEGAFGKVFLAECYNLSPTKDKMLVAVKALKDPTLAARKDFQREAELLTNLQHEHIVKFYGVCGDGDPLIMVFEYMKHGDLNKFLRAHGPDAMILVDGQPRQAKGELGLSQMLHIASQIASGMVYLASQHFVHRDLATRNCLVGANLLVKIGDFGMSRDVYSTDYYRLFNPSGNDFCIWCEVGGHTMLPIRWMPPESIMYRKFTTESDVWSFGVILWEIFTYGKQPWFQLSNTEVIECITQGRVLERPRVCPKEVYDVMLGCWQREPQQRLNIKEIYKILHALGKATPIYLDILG
Chain of Recombinant human TRKB (Q16620 32-822): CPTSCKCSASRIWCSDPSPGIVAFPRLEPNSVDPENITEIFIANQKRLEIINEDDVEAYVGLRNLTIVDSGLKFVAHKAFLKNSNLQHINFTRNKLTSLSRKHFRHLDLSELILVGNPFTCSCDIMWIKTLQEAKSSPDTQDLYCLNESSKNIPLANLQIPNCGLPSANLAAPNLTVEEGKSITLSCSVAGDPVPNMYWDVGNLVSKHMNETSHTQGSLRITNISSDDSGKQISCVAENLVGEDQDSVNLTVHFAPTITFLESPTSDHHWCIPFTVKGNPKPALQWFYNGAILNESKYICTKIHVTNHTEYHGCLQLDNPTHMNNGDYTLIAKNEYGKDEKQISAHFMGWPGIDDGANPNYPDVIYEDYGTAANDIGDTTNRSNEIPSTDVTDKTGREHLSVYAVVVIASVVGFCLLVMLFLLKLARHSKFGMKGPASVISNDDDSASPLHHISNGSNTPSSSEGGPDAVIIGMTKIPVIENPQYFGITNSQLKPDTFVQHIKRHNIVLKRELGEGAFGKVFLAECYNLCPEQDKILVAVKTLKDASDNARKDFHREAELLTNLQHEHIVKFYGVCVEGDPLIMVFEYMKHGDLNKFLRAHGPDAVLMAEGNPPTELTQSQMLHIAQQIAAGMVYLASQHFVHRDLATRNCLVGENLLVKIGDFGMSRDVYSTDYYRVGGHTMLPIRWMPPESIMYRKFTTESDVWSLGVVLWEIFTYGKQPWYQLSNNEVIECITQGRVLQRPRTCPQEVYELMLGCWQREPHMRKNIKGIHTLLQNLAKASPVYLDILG
Chain of Recombinant human TRKA (P04629 33-796): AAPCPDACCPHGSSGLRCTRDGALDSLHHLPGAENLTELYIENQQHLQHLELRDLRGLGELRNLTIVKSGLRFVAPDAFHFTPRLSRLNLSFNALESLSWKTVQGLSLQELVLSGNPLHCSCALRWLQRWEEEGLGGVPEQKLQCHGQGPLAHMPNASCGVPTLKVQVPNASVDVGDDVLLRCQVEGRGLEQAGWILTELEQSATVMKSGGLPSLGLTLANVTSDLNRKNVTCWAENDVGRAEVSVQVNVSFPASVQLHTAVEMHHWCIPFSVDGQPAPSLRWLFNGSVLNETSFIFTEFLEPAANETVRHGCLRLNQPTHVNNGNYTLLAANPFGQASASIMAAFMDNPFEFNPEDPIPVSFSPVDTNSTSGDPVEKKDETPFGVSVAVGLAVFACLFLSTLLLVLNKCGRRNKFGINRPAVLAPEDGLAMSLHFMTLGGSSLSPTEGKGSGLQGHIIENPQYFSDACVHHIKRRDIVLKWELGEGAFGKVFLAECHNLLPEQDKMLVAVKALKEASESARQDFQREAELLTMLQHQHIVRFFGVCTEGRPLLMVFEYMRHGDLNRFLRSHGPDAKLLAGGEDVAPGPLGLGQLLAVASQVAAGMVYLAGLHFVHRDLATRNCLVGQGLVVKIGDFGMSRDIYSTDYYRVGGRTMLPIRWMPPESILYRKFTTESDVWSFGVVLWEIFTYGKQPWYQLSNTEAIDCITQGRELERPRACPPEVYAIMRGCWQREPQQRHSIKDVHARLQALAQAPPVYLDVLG
Chain of recombinant human TRKA (G595R) (P04629 33-796 G595R): as the sequence (P04629 33-796) above, with G563R counted along it

For NC(=O)c1cnc2[nH]nc(N3C[C@@H](F)C[C@@H]3c3cc(F)ccc3F)c2c1 [Example 5, 3-((2R,4S)-2-(2,5-difluorophenyl)-4-fluoropyrrolidin-1-yl)-1H-pyrazolo[3,4-b]pyridine-5-carboxamide], the IC50 [1] was < 10 nM, the IC50 [2] was < 10 nM and the IC50 [3] was < 10 nM. For the same molecule, the IC50 [4] was < 10 nM and the IC50 [5] was < 10 nM.

For Fc1ccc(F)c([C@H]2C[C@H](F)CN2c2n[nH]c3ncc(-c4cn[nH]c4)cc23)c1 [Example 20, 3-((2R,4S)-2-(2,5-difluorophenyl)-4-fluoropyrrolidin-1-yl)-5-(1H-pyrazol-4-yl)-1H-pyrazolo[3,4-b]pyridine], the IC50 [1] was < 10 nM, the IC50 [2] was < 1 nM and the IC50 [3] was < 1 nM. For the same molecule, the IC50 [4] was < 1 nM and the IC50 [5] was < 1 nM.

For Fc1ccc(F)c([C@H]2C[C@H](F)CN2c2n[nH]c3ncc(-c4cnn(C5CCNCC5)c4)cc23)c1 [Example 22, 3-((2R,4S)-2-(2,5-difluorophenyl)-4-fluoropyrrolidin-1-yl)-5-(1-(piperidin-4-yl)-1H-pyrazol-4-yl)-1H-pyrazolo[3,4-b]pyridine], the IC50 [1] was < 10 nM, the IC50 [2] was < 1 nM and the IC50 [3] was < 1 nM. The IC50 [4] was < 1 nM and the IC50 [5] was < 1 nM.

Fc1ccc(F)c([C@H]2C[C@H](F)CN2c2n[nH]c3ncc(-c4cnn([C@@H]5CCNC5)c4)cc23)c1 [Example 24, 3-((2R,4S)-2-(2,5-difluorophenyl)-4-fluoropyrrolidin-1-yl)-5-(1-((R)-pyrrolidin-3-yl)-1H-pyrazol-4-yl)-1H-pyrazolo[3,4-b]pyridine] was tested, and the IC50 [1] was < 10 nM, the IC50 [2] was < 10 nM and the IC50 [3] was < 100 nM. For the same molecule, the IC50 [4] was < 1 nM and the IC50 [5] was < 500 nM.

For Fc1ccc(F)c([C@H]2C[C@H](F)CN2c2n[nH]c3ncc(-c4cnn([C@H]5CCNC5)c4)cc23)c1 [Example 25, 3-((2R,4S)-2-(2,5-difluorophenyl)-4-fluoropyrrolidin-1-yl)-5-(1-((S)-pyrrolidin-3-yl)-1H-pyrazol-4-yl)-1H-pyrazolo[3,4-b]pyridine], the IC50 [1] was < 10 nM, the IC50 [2] was < 1 nM and the IC50 [3] was < 1 nM. For the same molecule, the IC50 [4] was < 1 nM and the IC50 [5] was < 1 nM.

Fc1ccc(F)c([C@H]2C[C@H](F)CN2c2n[nH]c3ncc(-c4cnn(C5CCOCC5)c4)cc23)c1 [Example 28, 3-((2R,4S)-2-(2,5-difluorophenyl)-4-fluoropyrrolidin-1-yl)-5-(1-(tetrahydro-2H-pyran-4-yl)-1H-pyrazol-4-yl)-1H-pyrazolo[3,4-b]pyridine] was tested, and the IC50 [2] was < 1 nM, the IC50 [3] was < 1 nM and the IC50 [4] was < 1 nM. For the same molecule, the IC50 [5] was < 1 nM.

For CN1CC(n2cc(-c3cnc4[nH]nc(N5C[C@@H](F)C[C@@H]5c5cc(F)ccc5F)c4c3)cn2)C1 [Example 29, 3-((2R,4S)-2-(2,5-difluorophenyl)-4-fluoropyrrolidin-1-yl)-5-(1-(1-methylazetidin-3-yl)-1H-pyrazol-4-yl)-1H-pyrazolo[3,4-b]pyridine], the IC50 [1] was < 10 nM, the IC50 [2] was < 1 nM and the IC50 [3] was < 1 nM. The IC50 [4] was < 10 nM and the IC50 [5] was < 1 nM.

With Fc1ccc(F)c([C@H]2C[C@H](F)CN2c2n[nH]c3ncc(-c4cnn(CC(F)F)c4)cc23)c1 [Example 30, 5-(1-(2,2-difluoroethyl)-1H-pyrazol-4-yl)-3-((2R,4S)-2-(2,5-difluorophenyl)-4-fluoropyrrolidin-1-yl)-1H-pyrazolo[3,4-b]pyridine] the IC50 [1] was < 10 nM, the IC50 [2] was < 1 nM and the IC50 [3] was < 1 nM. The IC50 [4] was < 1 nM and the IC50 [5] was < 1 nM.

For Fc1ccc(F)c([C@H]2C[C@H](F)CN2c2n[nH]c3ncc(-c4cnn(COCc5ccccc5)c4)cc23)c1 [Example 31, 5-(1-((benzyloxy)methyl)-1H-pyrazol-4-yl)-3-((2R,4S)-2-(2,5-difluorophenyl)-4-fluoropyrrolidin-1-yl)-1H-pyrazolo[3,4-b]pyridine], the IC50 [2] was < 10 nM, the IC50 [3] was < 10 nM and the IC50 [4] was < 10 nM. The IC50 [5] was < 1 nM.

In the case of CC(C)(O)Cn1cc(-c2cnc3[nH]nc(N4C[C@@H](F)C[C@@H]4c4cc(F)ccc4F)c3c2)cn1 [Example 32, 1-(4-(3-((2R,4S)-2-(2,5-difluorophenyl)-4-fluoropyrrolidin-1-yl)-1H-pyrazolo[3,4-b]pyridin-5-yl)-1H-pyrazol-1-yl)-2-methylpropan-2-ol], the IC50 [1] is reported as < 1 nM, the IC50 [2] is reported as < 1 nM and the IC50 [3] is reported as < 1 nM. The IC50 [4] was < 1 nM and the IC50 [5] was < 1 nM.

In the case of CN(C)CCn1cc(-c2cnc3[nH]nc(N4C[C@@H](F)C[C@@H]4c4cc(F)ccc4F)c3c2)cn1 [Example 33, 2-(4-(3-((2R,4S)-2-(2,5-difluorophenyl)-4-fluoropyrrolidin-1-yl)-1H-pyrazolo[3,4-b]pyridin-5-yl)-1H-pyrazol-1-yl)-N,N-dimethylethan-1-amine], the IC50 [1] is reported as < 1 nM, the IC50 [2] is reported as < 1 nM and the IC50 [3] is reported as < 1 nM. The IC50 [4] was < 1 nM and the IC50 [5] was < 1 nM.

For Fc1ccc(F)c([C@H]2C[C@H](F)CN2c2n[nH]c3ncc(-c4cnn(CC5CNC5)c4)cc23)c1 [Example 34, 5-(1-(azetidin-3-ylmethyl)-1H-pyrazol-4-yl)-3-((2R,4S)-2-(2,5-difluorophenyl)-4-fluoropyrrolidin-1-yl)-1H-pyrazolo[3,4-b]pyridine], the IC50 [2] was < 1 nM, the IC50 [3] was < 1 nM and the IC50 [4] was < 10 nM. For the same molecule, the IC50 [5] was < 1 nM.

Fc1ccc(F)c([C@H]2C[C@H](F)CN2c2n[nH]c3ncc(-c4cnn(CC(F)(F)F)c4)cc23)c1 [Example 35, 3-((2R,4S)-2-(2,5-difluorophenyl)-4-fluoropyrrolidin-1-yl)-5-(1-(2,2,2-trifluoroethyl)-1H-pyrazol-4-yl)-1H-pyrazolo[3,4-b]pyridine] was tested, and the IC50 [1] was < 10 nM, the IC50 [2] was < 1 nM and the IC50 [3] was < 1 nM. For the same molecule, the IC50 [4] was < 1 nM and the IC50 [5] was < 1 nM.

In the case of Cc1cn(CC(F)F)nc1-c1cnc2[nH]nc(N3C[C@@H](F)C[C@@H]3c3cc(F)ccc3F)c2c1 [Example 40, 5-(1-(2,2-difluoroethyl)-4-methyl-1H-pyrazol-3-yl)-3-((2R,4S)-2-(2,5-difluorophenyl)-4-fluoropyrrolidin-1-yl)-1H-pyrazolo[3,4-b]pyridine], the IC50 [2] is reported as < 1 nM, the IC50 [3] is reported as < 1 nM and the IC50 [4] is reported as < 10 nM. The IC50 [5] was < 1 nM.

For Fc1ccc(F)c([C@H]2C[C@H](F)CN2c2n[nH]c3ncc(-c4nnc(COC(F)(F)F)o4)cc23)c1 [Example 41, 2-(3-((2R,4S)-2-(2,5-difluorophenyl)-4-fluoropyrrolidin-1-yl)-1H-pyrazolo[3,4-b]pyridin-5-yl)-5-((trifluoromethoxy)methyl)-1,3,4-oxadiazole], the IC50 [2] was < 1 nM, the IC50 [3] was < 1 nM and the IC50 [4] was < 1 nM. For the same molecule, the IC50 [5] was < 1 nM.

For O=C(c1n[nH]c2nccc(N[C@@H]3CCC[C@H]3O)c12)N1C[C@@H](F)C[C@@H]1c1cc(F)ccc1F [Example 43, ((2R,4S)-2-(2,5-difluorophenyl)-4-fluoropyrrolidin-1-yl)(4-(((1R,2R)-2-hydroxycyclopentyl)amino)-1H-pyrazolo[3,4-b]pyridin-3-yl)methanone], the IC50 [2] was < 1 nM, the IC50 [3] was < 1 nM and the IC50 [4] was < 1 nM. For the same molecule, the IC50 [5] was < 1 nM.
